Laboratory results from patent US7230139B2, “Diterpenoid compounds, compositions thereof and their use as anti-cancer or anti-fungal agents” (priority 2004, dated 2007).

Legend:
[1] = tested on: Candida albicans strain ATCC 10231; test: Fungus growth inhibition (OD600); assay type: cell-based; details: dilution series, YEP glucose, 30° C.; dose-dependent
Procedure: (§1) Fungus cells were first cultured overnight in 10 mL of YEP glucose-containing medium at 30° C. The following day, 5 μL of the overnight culture (5–6×10^3 cells) was added to 100 μL of YEP glucose-containing medium in a 96-well microtitre plate. To these cultures a dilution series of Compound 50 was added. Compound 50 was prepared as a stock solution in 100% dimethyl sulfoxide (DMSO) at a concentration of 10 mM. Serial dilutions were prepared in distilled water. The final DMSO concentration in each well was 0.5%. Fungus cells were grown at 30° C. and cell growth was monitored by reading the OD600 (optical density at 600 nm) with a Tecan Ultra plate reader (TECAN U.S. Inc. Research Triangle Park, N.C., USA). […] Accordingly, Compound 50, an illustrative Diterpenoid Compound, is useful for inhibiting the growth of a fungus or treating a fungal infection.

[2] = assay type: in vivo, CB17 SCID/SCID female mice
Procedure: (§2) C33A cells were transplanted subcutaneously into the flank of female CB17 SCID/SCID mice. Each mouse was inoculated with a suspension of 2×10^6 tumor cells per 100 μL on day zero. The following six treatment groups of ten mice each were used: (a) a negative control group treated with intravenous (i.v.) injection of vehicle, (b) a negative control group treated with intraperitoneal (i.p.) injection of vehicle, (c) a positive control group treated with i.p. injection of Cisplatin, (d) a group treated with i.v. injection of a Compound 50, (e) a group treated with i.p. injection of Compound 50, and (f) a group treated with subcutaneous (s.c.) injection of Compound 50.
(§3) Treatment started on day thirteen after C33A cells transplantation for Compound 50 treated groups and on day fourteen for Cisplatin treated group. Compound 50 was administered i.v., i.p., and s.c. once daily for five consecutive days at a dose of 10, 15 and 30 mg/kg, respectively. Compound 50 was prepared as a working solution of 1.5 mg/mL in a vehicle solution of 20% Cremaphor EL (Sigma, St. Louis, Mo., USA), 10% Ethanol and 5% Dextrose (Abbot Laboratories, QC, Canada). The negative control groups were treated with vehicle alone. The positive control group was treated once every 3 days for fifteen days at a dose of 3.5 mg/kg. Cisplatin was formulated in PBS on each day of the injection and was administered i.p.
The mice were weighed and the tumors measured on day 13 and every 2 to 3 days after treatment commenced. Observations continued for 36 days after initial tumor implantation. The changes in body weight and in the calculated tumor volume were plotted (FIGS. 4 and 5). Statistical analysis was performed using GraphPad Prism (GraphPad Software Inc., San Diego, Calif.). Two-way ANOVA was used to determine how the treatment affected tumor growth over time. Following the two-way ANOVA, post-tests were performed using the Benferroni method to determine the statistical difference between the mean tumor-size of the two groups being compared on every day that the tumors were measured. […]

[3] = tested on: Saccharomyces cerevisiae strain W303a; test: Yeast growth inhibition (OD600); assay type: cell-based; details: dilution series, YEP with glucose, galactose or glycerol, 30° C.; dose-dependent
Procedure: as §1, with “Yeast cells were” for “Fungus cells were”, “of YEP media supplemented with 2% of one of the three carbon sources mentioned above in a” for “of YEP glucose-containing medium in a”, “was 0.5%. Yeast cells were” for “was 0.5%. Fungus cells were”, “a Tecan ULTRA plate reader” for “a Tecan Ultra plate reader”, “(TECAN U.S. Inc., Research Triangle” for “(TECAN U.S. Inc. Research Triangle”

[4] = tested on: C33A human cervical cancer cells; test: C33A cervical tumor xenograft in SCID mice; assay type: in vivo, CB17 SCID/SCID female mice; details: for Tumor growth compared to vehicle: two-way ANOVA
Procedure: The resultant mice are a model for a human having cervical cancer.
The C33A human cervical cancer cells were maintained in RPMI supplemented with 10% inactivated fetal bovine serum and 1% penicillin-streptomycin-L-Glutamine, under 5% CO2 at 37° C., and passaged twice a week. The cells were grown at a confluency lower than 70% and then collected with Trypsin (Bio-Whittaker, Md., USA). The cells were then centrifuged and washed twice using phosphate buffered saline solution (PBS) and resuspended in PBS at 2×10^6 cells per 100 μl. Viability was examined by staining with Trypan Blue and only flasks with cell viability of greater than 95% were used for in vivo studies.
as §2, §3
The mice were weighed and the tumors measured on day 13 and every 2 to 3 days after treatment commenced. Observations continued for 36 days after initial tumor implantation. The changes in body weight and in the calculated tumor volume were plotted (FIGS. 4 and 5). Statistical analysis was performed using GraphPad Prism (GraphPad Software Inc., San Diego, Calif.). Two-way ANOVA was used to determine how the treatment affected tumor growth over time. Following the two-way ANOVA, post-tests were performed using the Benferroni method to determine the statistical difference between the mean tumor-size of the two groups being compared on every day that the tumors were measured. Four animals in the negative control injected i.v. with vehicle and two animals in the group treated i.v. with Compound 50 died during the observation period. Therefore, the data collected from these animals were excluded from all calculations and the total number of animals in the groups changed to six for the negative control injected i.v. with vehicle and eight for the group treated i.v. with Compound 50.

Q: Which results are given for `COc1ccc2c(c1)C1(C)C=CC(=O)C(C)(C)C1=C(O)C2=O` (racemic) [Compound 50]?
A: Growth of Candida albicans [1]: significantly inhibited growth; Change in body weight ([2]; Compound 50 i.v., i.p. or s.c. 10, 15, 30 mg/kg once daily for five days): non-significant change in body weight; Animals died during the observation period ([2]; i.v. group of ten mice, four died in the i.v. vehicle group): two animals; Growth of Saccharomyces cerevisiae [3]: significantly inhibited growth; Tumor growth compared to vehicle ([4]; i.p. 15 mg/kg once a day for five days): significant reduction (p<0.001); Mean tumor-size compared to vehicle ([4]; i.p., day 34 and day 36): significantly (p<0.05) smaller mean tumor-size; Tumor growth compared to vehicle ([4]; i.v. 10 mg/kg once a day for five days): significant reduction (p<0.001); Mean tumor-size compared to vehicle ([4]; i.v. 10 mg/kg, day 36): significantly (p<0.05) smaller mean tumor-size; Tumor growth compared to vehicle ([4]; s.c. 30 mg/kg once a day for five days): significant reduction (p<0.001); Mean tumor-size compared to vehicle ([4]; s.c., day 34 (p<0.01) and day 36 (p<0.001)): significantly smaller mean tumor-size
